Data published in article PMC4168161, “A novel approach for the discovery of chemically diverse anti-malarial compounds targeting the Plasmodium falciparum Coenzyme A synthesis pathway” (Malaria Journal, 2014).
Values joined by “and” are separate entries in the source; they are usually repeats but may differ in a detail not shown here. Identical values can stand only once.

Legend:
[1] = system: P. falciparum CoA synthesis pathway; assay: Coenzyme A chemical rescue assay on P. falciparum; type: cell-based, Plasmodium falciparum; details: for antiplasmodial activity of control compounds upon CoA supplementation / IC50 shift upon CoA supplementation: eight-point dose response, n = 2; for antiplasmodial activity of control compounds upon CoA supplementation: fixed CoA; for CoA rescue (relative parasite number, % of untreated control): at 2 μM compound, with CoA supplementation; for IC50 shift upon CoA supplementation: fixed CoA (0.8-2 mM)
Description: The well-established P. falciparum imaging assay was modified to allow assessment of chemical rescue with CoA. In brief, sorbitol (5% w/v) synchronization was performed twice, approximately 8 hr apart, on each synchronization day for two consecutive ring cycles, i.e., on day 1 and 3 of assay preparation. On day 2 the culture was split to approximately 2% trophozoite parasitaemia. On day 4 the culture was split to 1-1.5% trophozoite parasitaemia, which yielded approximately 8% ring parasitaemia after 48 hr (on day 5, i.e., the day of the assay set-up). Compound stocks (10 mM in 100% DMSO) were diluted 1:25 in sterile water, less than 24 hr prior to use. An additional 1:10 dilution was performed, resulting in a 1:250 overall compound dilution and a final DMSO concentration of 0.4%. For initial screening, compounds were tested at a final 2 μM concentration. […] The known P. falciparum CoA synthesis inhibitor, panthenol, was prepared as a 100 mM solution in 4% DMSO. The final concentration of the dose response curve of panthenol started at 10 mM and was serially diluted down to 100 nM. CoA was dissolved in water. […] Five μl of the 1:25 diluted test compound or control solutions were added to 384-well CellCarrier imaging plates (PerkinElmer). For the chemical rescue, 5 μl of CoA solution were added to ‘rescue’ wells and 5 μl water to all control and reference wells, respectively. Parasite culture was added to a final concentration of 1% parasitaemia (% P) and 0.3% haematocrit (% H). Plates were incubated for 72 hr at 37°C, 5% CO2 and 95% humidity. On day 8 the permeabilization and nuclear staining buffer was prepared in PBS containing 10 μg/ml saponin, 0.01% triton X, 5 mM EDTA (all: Sigma) and 0.5 μg/ml 4′,6-diamidino-2-phenylindole (DAPI; Life Technologies). The plates were left for at least 4 hr (typically overnight), before confocal imaging on an Opera™ High Content Screening Platform (PerkinElmer) at 405 nm excitation with a 20x water objective. Automated primary image analysis was performed concurrent with the imaging process, utilizing an Acapella® software (PerkinElmer) script to determine the number of parasites based on object size and fluorescence intensity. Determination of the % growth compared to controls (2 μM artemisinin as positive and 0.4% DMSO as negative control) was performed in Microsoft® Excel 2010. Statistical analysis including IC50 determination and graphical output was performed in GraphPad Prism® 5 using non-linear regression variable slope curve fitting. Cell-based high throughput screening (HTS) entails the distinct benefit that positive hits have already proven effective against the live parasite within its natural host erythrocyte environment. Modifications of an image-based assay were undertaken to identify compounds that interfere with the P. falciparum CoA pathway. The modification involved a chemical rescue approach adapted from a similar method used to investigate apicoplast function. The principle idea of the chemical rescue approach is that supplementation of an unbranched pathway’s end product – in this case CoA - should abrogate, or at least alleviate, negative growth effects of compounds inhibiting any step in the pathway. […] To identify new potential CoA synthesis inhibitors, the CoA chemical rescue approach was used to screen 144 compounds with known antiplasmodial activity identified by HTS in the Avery laboratory, in addition to the MMV malaria box. […] Compounds which rescued growth to at least 50% of control values and two-fold difference compared to treatment alone, were regarded as partial rescue hits.

[2] = system: Plasmodium falciparum strain 3D7; assay: Plasmodium falciparum growth inhibition imaging assay; type: cell-based; details: for P. falciparum growth: 3D7, dose response; for P. falciparum growth / IC50: n = 3; for IC50: P. falciparum 3D7, 72 hr; for parasite growth inhibition: 2 μM
Description: In vitro parasite culture was maintained in RPMI with 10 mM Hepes (Life Technologies), 50 μg/ml hypoxanthine (Sigma) and 5 mg/ml AlbuMAX II® (Life Technologies). Human O + erythrocytes were obtained from the Australian Red Cross Blood Service (Agreement No: 13-04QLD-09). The parasites were maintained at 2-8% parasitaemia (% P) at 5% haematocrit (% H), incubated at 37°C, 5% CO2, 5%O2 and 90% N2 and 95% humidity. The well-established P. falciparum imaging assay was modified to allow assessment of chemical rescue with CoA. In brief, sorbitol (5% w/v) synchronization was performed twice, approximately 8 hr apart, on each synchronization day for two consecutive ring cycles, i.e., on day 1 and 3 of assay preparation. On day 2 the culture was split to approximately 2% trophozoite parasitaemia. On day 4 the culture was split to 1-1.5% trophozoite parasitaemia, which yielded approximately 8% ring parasitaemia after 48 hr (on day 5, i.e., the day of the assay set-up). Compound stocks (10 mM in 100% DMSO) were diluted 1:25 in sterile water, less than 24 hr prior to use. An additional 1:10 dilution was performed, resulting in a 1:250 overall compound dilution and a final DMSO concentration of 0.4%. For initial screening, compounds were tested at a final 2 μM concentration. For dose response curves of the active compounds, a semi-logarithmic serial dilution (containing three data points per log) was prepared at 40 μM top concentration for test compounds and 2 μM for the positive control, artemisinin. The known P. falciparum CoA synthesis inhibitor, panthenol, was prepared as a 100 mM solution in 4% DMSO. The final concentration of the dose response curve of panthenol started at 10 mM and was serially diluted down to 100 nM. CoA was dissolved in water. The final CoA concentration for optimal rescue results was determined for each CoA batch and ranged between 0.8-2 mM. Five μl of the 1:25 diluted test compound or control solutions were added to 384-well CellCarrier imaging plates (PerkinElmer). For the chemical rescue, 5 μl of CoA solution were added to ‘rescue’ wells and 5 μl water to all control and reference wells, respectively. Parasite culture was added to a final concentration of 1% parasitaemia (% P) and 0.3% haematocrit (% H). Plates were incubated for 72 hr at 37°C, 5% CO2 and 95% humidity. On day 8 the permeabilization and nuclear staining buffer was prepared in PBS containing 10 μg/ml saponin, 0.01% triton X, 5 mM EDTA (all: Sigma) and 0.5 μg/ml 4′,6-diamidino-2-phenylindole (DAPI; Life Technologies). The plates were left for at least 4 hr (typically overnight), before confocal imaging on an Opera™ High Content Screening Platform (PerkinElmer) at 405 nm excitation with a 20x water objective. Automated primary image analysis was performed concurrent with the imaging process, utilizing an Acapella® software (PerkinElmer) script to determine the number of parasites based on object size and fluorescence intensity. Determination of the % growth compared to controls (2 μM artemisinin as positive and 0.4% DMSO as negative control) was performed in Microsoft® Excel 2010. Statistical analysis including IC50 determination and graphical output was performed in GraphPad Prism® 5 using non-linear regression variable slope curve fitting.

[3] = system: HEK293 cells; assay: HEK293 viability assay (resazurin); type: cell-based, human; details: for IC50: HEK293, 72 hr, top concentration 40 μM, n = 3
Description: (§1) To assess cytotoxicity of compounds in dose response, a resazurin-based assay was utilized to determine cell viability. In brief, HEK293 cells were grown in DMEM medium (Life Technologies) containing 10% foetal calf serum (FCS; Gibco). Cells were trypsinized, counted and seeded at 2,000 cells per well in 45 μl media into TC-treated 384-well plates (Falcon) and left to adhere overnight at 37°C, 5% CO2 and 95% humidity.
(§2) Test compounds were prepared as described above, to give a top final test concentration of 40 μM, 0.4% DMSO. Plates were incubated for 72 hr at 37°C, 5% CO2 and 95% humidity, then the media was removed and replaced by 35 μl of 44 μM resazurin in DMEM without FCS. The plates were incubated for another 4-6 hr at 37°C, 5% CO2 and 95% humidity before reading on an EnVision® Plate Reader (PerkinElmer) using fluorescence excitation/emission settings of 530 nm/595 nm. Determination of the% growth compared to controls (40 μM puromycin as positive and 0.4% DMSO as negative control) was performed in Microsoft® Excel 2010. Statistical analysis including IC50 determination and graphical output was performed in GraphPad Prism® 5 using nonlinear regression variable slope curve fitting.

[4] = system: HEK293 cells; assay: CoA chemical rescue on HEK293 cells; type: cell-based, human; details: dose response with and without CoA, n = 2
Description: as §1
as §2, with “Plates” for “Test compounds were prepared as described above, to give a top final test concentration of 40 μM, 0.4% DMSO. Plates”

Compound	antiplasmodial activity of control compounds upon CoA supplementation [1]	cytotoxic effect on HEK293 cells upon CoA addition [4]	CoA rescue (relative parasite number, % of untreated control) [1] [% rescue at 2 μM]	IC50 shift upon CoA supplementation [1]	IC50 [3] [µM]	further results
CC(C)(CO)C(O)C(=O)NCCCO (stereo not shown) [Panthenol, panthenol, reference compound]	counteracted by CoA	completely negate	–	–	–	CoA rescue of growth inhibitory effect ([1]; CoA supplementation between 1 and 2 mM): fully rescued; P. falciparum growth [2]: dose-dependent P. falciparum growth inhibitor; cytotoxicity against HEK293 cells ([3]; at 40 μM): cytotoxic effect
CC(C)(COP(=O)(O)OP(=O)(O)OC[C@H]1O[C@@H](n2cnc3c(N)ncnc32)[C@H](O)[C@@H]1OP(=O)(O)O)[C@@H](O)C(=O)NCCC(=O)NCCS [CoA, Coenzyme A]	–	–	–	–	–	P. falciparum growth [2]: not significantly altered
CCc1nc(N)nc(N)c1-c1ccc(Cl)cc1 [pyrimethamine, reference compound]	not reduced by CoA supplementation	–	–	–	–	–
CC(=O)C1=C(c2ccccc2)C(=O)c2ccccc2C1=O [Amb4317088]	–	reduced upon CoA addition	80	more than doubled	2.33	IC50 [2]: 1.23 µM
COc1ccc(C[C@H](N)C(=O)N[C@H]2[C@@H](O)[C@H](n3cnc4c(N(C)C)ncnc43)O[C@@H]2CO)cc1 [puromycin, reference compound]	–	no impact	–	–	–	–
Cc1ccc(C(C)C)c(OCc2nc3ccccc3n2C)c1 [Amb1541406]	–	–	80	1.5 times	> 40	inhibition of P. falciparum 3D7 ([2]; at 40 μM): 85% inhibition at 40 μM
OC1CCCCC1C1(NC(=S)Nc2ccccc2)CCCCC1 (stereo not shown) [Amb2368822/(MMV665980)]	–	–	80	more than doubled	> 40	parasite growth inhibition ([2]; MMV malaria box screen): 27%; parasite growth inhibition ([2]; original single dose screen, focussed compound library plate): 66%; parasite growth inhibition ([2]; retested twice from freshly dissolved solid): 98% and 90%; compound stability (inferred from lower activity of stored stock solution) ([2]; 100% DMSO stock at -20°C): potentially unstable; SI (selectivity index) ([2]; HEK293 IC50 value divided by P. falciparum IC50 value): > 6.3; IC50 [2]: 6.31 µM; IC50 ([2]; listed as Amb2368822): 6.3 µM
C[C@@H]1CC[C@H]2[C@@H](C)C(=O)O[C@@H]3O[C@@]4(C)CC[C@@H]1[C@]32OO4 [artemisinin, reference compound]	not reduced by CoA supplementation	–	–	–	–	–
